Measurements as given in article PMC7918738, “Microtubule Destabilizing Sulfonamides as an Alternative to Taxane-Based Chemotherapy” (International Journal of Molecular Sciences, 2021).
Values joined by “and” are separate entries in the source; they are usually repeats but may differ in a detail not shown here. Equal entries are not always repeated.

Assays:
[1] = tested on: SKOV3 ovarian carcinoma cells; test: Antiproliferative activity against SKOV3 (MTT); format: cell-based; conditions: Homo sapiens, SK-OV-3, 72 h
Procedure: (§1) The in vitro antiproliferative activity of compounds 38, 42, and 45 against a panel of five human ovarian carcinoma cell lines (SKOV3, IGROV-1, A2780, OVCAR-8, and OVCAR-3) was evaluated by a colorimetric method (Table 3) and compared with paclitaxel. […] For SKOV3, the potency reduction observed for paclitaxel together with a sustained or improved (42 with a 7 nM IC50 value) potency for MDS results in a more favorable profile of the MDS compared to paclitaxel.
(§2) MCF7 (human breast carcinoma), SKOV-3 (human ovarian carcinoma), OVCAR-3 (human ovarian carcinoma), OVCAR-8 (human ovarian carcinoma), and HeLa (human cervical carcinoma) cell lines were cultured in Dulbecco’s Modified Eagle’s Medium (DMEM) (Gibco, Thermo Fischer Scientific) containing 10% (v/v) heat-inactivated fetal bovine serum (HIFBS) (Lonza-Cambrex, Karlskoga, Sweden), 2 mM L-glutamine (Lonza-Cambrex, Karlskoga, Sweden), 100 μg/mL streptomycin, and 100 IU/mL penicillin (Lonza-Cambrex) at 37 °C in humidified 95% air and 5% CO2. HT-29 (human colon carcinoma), IGROV-1 (human ovarian carcinoma), and A2780 (human ovarian carcinoma) cell lines were cultured in RPMI 1640 medium (Gibco, Thermo Fischer Scientific) supplemented with 10% HIFBS, 100 μg/mL streptomycin, and 100 IU/mL penicillin at 37 °C in humidified 95% air and 5% CO2 atmosphere. The presence of mycoplasma was routinely checked with MycoAlert kit (Lonza-Cambrex) and only mycoplasma-free cells were used in the experiments. Ovarian tumor cell lines were originally acquired from Dr Atanasio Pandiella from Centro de Investigación del Cáncer (CIC), Salamanca, Spain. HeLa, HT-29 and MCF7 tumor cell lines were provided by Dr Faustino Mollinedo from Centro de Investigaciones Biológicas Margarita Salas, Madrid, Spain.
(§3) MCF7, HeLa, and HT-29 cell proliferation, when treated with the corresponding compounds, were determined using the XTT (sodium 3’-[1(phenylaminocarbonyl)-3,4-tetrazolium]-bis(4-methoxy-6-nitro)-benzenesulfonic acid hydrate) cell proliferation kit (Roche Molecular Biochemicals, Mannheim, Germany). […] The absorbance of the formazan product generated was measured at 450 nm using a multi-well plate reader. SKOV-3, OVCAR-3, OVCAR-8, IGROV-1, A-2780 cell proliferation, when treated with the corresponding compound, were determined using MTT (3-(4,5-dimethylthiazol-2-yl)-2,5-diphenyl-2H-tetrazolium bromide) (Sigma-Aldrich, St. Louis, MO, USA). […] Absorbance was measured at 570 nm in a plate reader (Ultra Evolution, Tecan, Männedorf, Suiza). […] After 24 h incubation, to allow cells to attach to the plates, all compounds were added at 1 µM concentration and the effect on the proliferation was evaluated 72 h post-treatment. […]

[2] = tested on: A2780 ovarian carcinoma cells; test: Antiproliferative activity against A2780 (MTT); format: cell-based; conditions: Homo sapiens, 72 h
Procedure: as §1
(§4) MCF7 (human breast carcinoma), SKOV-3 (human ovarian carcinoma), OVCAR-3 (human ovarian carcinoma), OVCAR-8 (human ovarian carcinoma), and HeLa (human cervical carcinoma) cell lines were cultured in Dulbecco’s Modified Eagle’s Medium (DMEM) (Gibco, Thermo Fischer Scientific) containing 10% (v/v) heat-inactivated fetal bovine serum (HIFBS) (Lonza-Cambrex, Karlskoga, Sweden), 2 mM L-glutamine (Lonza-Cambrex, Karlskoga, Sweden), 100 μg/mL streptomycin, and 100 IU/mL penicillin (Lonza-Cambrex) at 37 °C in humidified 95% air and 5% CO2. […]
as §3

[3] = tested on: OVCAR-8 ovarian carcinoma cells; test: Antiproliferative activity against OVCAR-8 (MTT); format: cell-based; conditions: Homo sapiens, 72 h
Procedure: as §1, §4, §3

[4] = tested on: IGROV-1 ovarian carcinoma cells; test: Antiproliferative activity against IGROV-1 (MTT); format: cell-based; conditions: Homo sapiens, 72 h
Procedure: as §1, §2, §3

[5] = tested on: OVCAR-3 ovarian carcinoma cells; test: Antiproliferative activity against OVCAR-3 (MTT); format: cell-based; conditions: Homo sapiens, 72 h
Procedure: as §1, §4, §3

SKOV3 cells = test: Annexin V-FITC/PI cell death quantification in SKOV3; format: cell-based, human; conditions: SKOV3, 72 h; 38 600 nM, 42 50 nM, 45 400 nM, paclitaxel 10 nM
Procedure: To determine whether the cytotoxic/antiproliferative effect of the MDS was due to apoptosis induction, cells were treated with variable concentrations of the drug for 72 h or 6 days, stained with Annexin V-FITC (AnV) and propidium iodide (PI), and analyzed by flow cytometry. Double negative cells (AnV^−/PI^−) were classified as live cells (L), cells positive for AnV and negative for PI (AnV^+/PI^−) were considered in Early Apoptosis (EA), cells negative for AnV and positive for PI (AnV^−/PI^+) were considered necrotic (N), and double-positive cells (AnV^+/PI^+) as Late Apoptosis (LA). In all cases, the compounds were used at the same concentrations previously used in cell cycle studies (Table 5).
MCF7, SKOV-3, and HeLa apoptotic cells were quantified using an Annexin V-FITC/PI apoptosis detection kit (Immunostep, Salamanca, Spain) according to the manufacturer’s guidelines. 1.5 mL/well of cells in the exponential growth phase at 2·10^4 cells/mL were seeded onto 12-well plates and left to attach overnight. After 24 h incubation, cells were treated with selected compounds. After 72 h (MCF7, SKOV-3, and HeLa) and 6 days (MCF7) post-treatment, attached and floating cells of treated and untreated wells were collected, centrifuged, resuspended in Annexin V binding buffer, and stained with Annexin V-FITC/PI. Cells were then incubated in darkness at room temperature for 15 min and a total of 30,000 cells were acquired and analyzed using the BD Accuri™ C6 Plus Flow Cytometer and Software (version 1.0.264.21, BD Biosciences, San José, CA, USA), respectively. Compounds were dissolved in DMSO and the final solvent concentration never exceeded 0.5% (v/v). Control wells included cells with 0.5% (v/v) DMSO.

IC50 [1] [nM]	IC50 [2] [nM]	IC50 [3] [nM]	IC50 [4] [nM]	IC50 [5] [nM]	SMILES	Annexin V-FITC/PI 72 h EA (early apoptosis) (SKOV3 cells)	Annexin V-FITC/PI 72 h LA (late apoptosis) (SKOV3 cells) [%]	Annexin V-FITC/PI 72 h Live (SKOV3 cells) [%]	Annexin V-FITC/PI 72 h Necrosis (SKOV3 cells) [%]
46	68	74	248	31	CNc1ccc(S(=O)(=O)N(C)c2cc(OC)c(OC)c(OC)c2)cc1 [Compound 38]	31% and 30.5%	5.4	62.3	1.8
7	42	37	400	72	COc1ccc(S(=O)(=O)N(C)c2cc(OC)c(OC)c(OC)c2)cc1N [Compound 42]	12.2%	2.0	85.1	0.7
48	104	48	492	58	COc1ccc(S(=O)(=O)N(Cc2ccccc2)c2cc(OC)c(OC)c(OC)c2)cc1N [Compound 45]	23% and 23.4%	2.6	72.7	1.3
